Source: US20220170028A1, “NOVEL INTERLEUKIN-2 VARIANTS AND BIFUNCTIONAL FUSION MOLECULES THEREOF” (Cugene Inc, priority 2019, published 2022)
“Also recorded” adds a separate entry of the source.

Key:
[1] = system: CD4+ Treg vs CD4+ Tconv cells; assay: STAT5 phosphorylation, selectivity / activity profile Treg versus CD4+ Tconv cells, human PBMC; type: cell-based
How it was run: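 Fresh human PBMC from a healthy donor, serum-starved 1 h at 4 °C, then exposed to serial dilutions of IL-2 variants for 30 min at 37 °C. After fixation/permeabilization, cells stained for CD4, CD25, FOXP3 and pSTAT5 and analysed by flow cytometry. Treg (CD4+/Foxp3+/CD25high) and Tconv (CD4+/Foxp3−/CD25low) gated; read-out is percent pSTAT5-positive cells.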

[2] = system: CD4+ Tconv, activated CD4+ T, CD8+ T and NK cells; assay: Effector T cell and NK cell proliferation and expansion in mice, bifunctional constructs (Example 17); type: in vivo, mouse; conditions: 15 nmol/kg single s.c.
Method: (§1) IL-2 variant tocilizumab bifunctional proteins P-0536, P-0546, P-0559, and P-0560 along with IL-2 variant Fc fusion protein P-0511 were administered to mice, and their ability to preferentially proliferate and expand regulatory T cells (CD4+CD25+FoxP3+ T cells) over effector T cells and NK cells were determined in vivo.
(§2) Female C57/BL6 mice (7-week old) were received from Charles River Laboratory and acclimated in house for at least 7 days before the study. Vehicle (PBS) and 15 nmol/kg each test compounds were subcutaneously administered to mice on day 0. Peripheral blood samples were collected into heparin-treated tubes on days 2, 4 and 8 post-treatment. Each group contained 5 mice and baseline blood was collected 3 days prior to the treatment (day −3).

Treg cells [3] = assay: Treg proliferation and expansion in mice after a single s.c. injection of bifunctional constructs (Example 17); type: in vivo, mouse; conditions: 15 nmol/kg single s.c.; for potency in inducing Treg cell proliferation and expansion in vivo (in words): C57/BL6 mice
Method: as §1, §2

[4] = system: KLH-induced DTH in Balb/C mice; assay: KLH-induced delayed-type hypersensitivity (DTH) mouse model, ear thickness; type: in vivo; conditions: 72 hours after KLH challenge, 4 consecutive daily dosing at 5 mg/kg i.p.
Method: The ability of Treg cells induced by IL-2 variants to suppress T cell antigen-driven inflammation in vivo was assessed in a model of delayed-type hypersensitivity (DTH). Female Balb/C mice (7-week old) were acclimated in house for 7 days and randomized into groups. Subcutaneous administration of vehicle (PBS), P-0511 at either 0.1 mg/kg or 0.3 mg/kg was initiated on day −2 and was given either once every 3 days (Q3D) for three injections or once every 5 days (Q5D) for two injections. Mice were then sensitized with a subcutaneous administration of 100 μg keyhole limpet hemocyanin (KLH) in 200 μl saline on day 0. For Q3D dosing, two more subcutaneous injections of PBS or P-0511 (0.1 or 0.3 mg/kg) were administered on days 1, and 4; for Q5D dosing, one additional s.c. injection of PBS, 0.1 or 0.3 mg/kg P-0511 was administered on day 3. Mice received an intradermal challenge of KLH (5 μg in 10 μl saline) in right ear on day 5. Right ear thickness was measured using a caliper on day 5 prior KLH challenge and daily from day 6 to day 9 corresponding to 24 h, 48 h, 72 h and 96 h post KLH challenge. One group of mice also received 5 mg/kg daily i.p. treatment of dexamethasone from day 5 to day 8 as a positive control.
Kinetics of the DTH response using the change in ear thickness relative to baseline values (Δ ear thickness) at various times after KLH challenge was illustrated in FIG. 23.

NK cells [5] = assay: Ki67 expression on NK cells, human PBMC, flow cytometry; type: cell-based
Excerpt: (§3) Exemplary IL-2 variant Fc fusion protein P-0573 was further characterized for induction of Ki-67 expression by flow cytometry.

CD4+ T cells = assay: Ki67 expression on CD4+ T cells, human PBMC, flow cytometry; type: cell-based
Excerpt: as §3

CD8+ T cells [6] = assay: Ki67 expression on CD8+ T cells, human PBMC, flow cytometry; type: cell-based
Excerpt: as §3

[7] = system: CD4+ Tconv cells, CD8 T cells and NK cells; assay: Effector T cell and NK cell proliferation and expansion in mice after a single subcutaneous injection (Example 9); type: in vivo, mouse; conditions: 0.3 mg/kg single s.c., C57/BL6 mice
Method: (§4) IL-2 variant Fc fusion proteins were administered to mice and their ability to preferentially proliferate and expand regulatory T cells (CD4+CD25+FoxP3+ T cells) over effector T cells and NK cells were determined in vivo.
(§5) Female C57/BL6 mice (7-week old) were received from Charles River Laboratory and acclimated in house for at least 7 days before the study. Vehicle (PBS), 0.3 mg/kg of each test compounds, or IL-2 benchmark compounds were subcutaneously administered to mice on day 0. Peripheral blood samples were collected into heparin-treated tubes on days 3, 5 and 7 post-treatment. Each group contained 6 mice and baseline blood was collected 2 days prior to the treatment (day −2). After red blood cell lysis, total viable mononuclear blood cells were counted by trypan blue dead cell exclusion method and proceeded to intracellular staining for immune cell phenotype and Ki67 proliferation markers using flow cytometric analysis. Cells were stained separately with two panels of antibodies as listed: 1) anti-mouse Foxp3-FITC, Ki67-PE, anti-mouse CD25-APC and anti-mouse CD4-Percpcy5.5 (1:50 dilution) for CD4+T-regulatory cells (Treg); 2) anti-mouse CD3-FITC, Ki67-PE, anti-mouse CD335-APC and anti-mouse CD8-Percpcy5.5 (1:50 dilution) for CD8+T and NK cells.

NK cells [8] = assay: NK cell proliferation, CFSE dilution, human PBMC; type: cell-based; conditions: 5 or 7 days incubation
Method: (§6) Further, P-0511 and P-0512 were tested for their ability to stimulate NK and CD8+ T cells proliferation in comparison with the wild type and benchmark molecules. Intracellular fluorescent label carboxyfluorescein diacetate succinimidyl ester (CFSE) method was utilized. Briefly, human PBMC (1×10^5 cells/well) were labeled with CFSE, plated onto 96-well plates, and incubated with increasing concentrations of different IL-2 compounds. Cells were then harvested after 5 or 7 days of incubation and stained with either anti-CD56-APC antibody for NK cells or anti-CD8-APC antibody for CD8+ T cells; and analyzed by flow cytometry. Data are expressed as a percent of divided cells and illustrated in FIG. 10A for CD8+ T cell proliferation and FIG. 10B for NK cell proliferation.

[9] = system: CD4+/Foxp3+/CD25+ Treg, CD4+/Foxp3-/CD25+ Teff and CD4+/Foxp3-/CD25- naive T cells; assay: STAT5 phosphorylation in three CD4+ T cell subsets (Treg, CD4 effector, CD4 naive), human PBMC; type: cell-based
Excerpt: In addition to being assessed for their ability to differentially stimulate Stat5 phosphorylation in CD4 positive Treg (CD4+/Foxp3+/CD25^high) versus Tconv (CD4+/Foxp3−/CD25^low) cells, two variants, P-0511 and P-0512, were further assayed for their ability to stimulate other effector T and NK cells, including CD4 positive Teff (CD4+/Foxp3-/CD25+), CD8 cytotoxic T effector and NK cells in comparison to wild-type IL-2 (P-0250) and three IL-2 benchmark molecules containing V91K, N88R, N88D respectively.
After human PBMC Cells were treated with serial dilutions of test compounds, fixed and permeabilized, washed, and stained with a mixture of anti-CD25-PE, anti-FOXP3-APC, anti-pSTAT5-FITC, and anti-CD4-PerCP-Cy5.5 antibodies, the flow cytometry analysis was gated into CD4+/Foxp3+/CD25+, CD4+/Foxp3−/CD25+, CD4+/Foxp3−/CD25− groups for the Treg, CD4 effector, and CD4 naive T cell subsets, respectively. Data are expressed as a percent of pStat5 positive cells in gated population and illustrated in FIG. 9.

Treg cells [10] = assay: Treg proliferation and expansion in mice after a single subcutaneous injection (Example 9); type: in vivo, mouse; conditions: 0.3 mg/kg single s.c., C57/BL6 mice
Method: as §4, §5

CD8+ T cells [11] = assay: CD8+ T cell proliferation, CFSE dilution, human PBMC; type: cell-based; conditions: 5 or 7 days incubation
Method: as §6

Treg cells [12] = assay: Treg pharmacodynamics in mice after repeated administration Q3D (Example 11); type: in vivo, mouse; conditions: 0.3 mg/kg s.c.
Method: Female Balb/C mice (7-week old) were acclimated in house for 5-7 days before the study. Vehicle (PBS), 0.3 mg/kg of P-0511, P-0512, P-0531, or Benchmark-1 compound were subcutaneously administered to mice (n=5/group) on days 0, 3, and 6. On days 3 and 9, three days after the first injection and multiple (3) injections, respectively, peripheral blood was collected. Based on earlier in vivo experiments, Treg cell activation, proliferation, and expansion were expected to peak on day 3, and thus three days post injection was selected for data collection and analysis. Changes in blood lymphocyte activation, proliferation, and expansion were measured by flow cytometry. P-0531 is the S125I equivalent of the wild type IL-2 fusion protein. The Benchmark-1 contains V91K mutation.

“P-0560: Tocilizumab IL-2 D20Q/S125I monovalent fusion, SEQ ID NOs 253 + 254 + 266” was tested, and the “activity profile / selectivity window Treg over CD4+ Tconv (in words)” value [1] was “selective activation of Treg cells over CD4+ Tconv cells”, the “change of the activated CD4+ T cells” value [2] was “slight increase” and the “Treg/Tconv ratio (Ki67 stimulation, cell counts)” value (Treg cells [3]) was “most beneficial Treg/Tconv ratio”. For the same compound, the “expression of CD25 and Foxp3 on Treg cells” value (Treg cells [3]) was “highest expression of CD25” and the “potency in inducing Treg cell proliferation and expansion in vivo (in words)” value (Treg cells [3]) was “highest potency”.
`C[C@@H]1C[C@H]2[C@@H]3CCC4=CC(=O)C=C[C@]4(C)[C@@]3(F)[C@@H](O)C[C@]2(C)[C@@]1(O)C(=O)CO` [dexamethasone, reference compound] was tested, and the “inhibition of KLH-induced inflammatory response” value [4] was ~85%.
In the case of “P-0573: IL-2 R38A/P65G/S125I Fc fusion, SEQ ID NO: 247”, the “induction of Ki67 expression in NK cells” value (NK cells [5]) is reported as “equally effective”, the “induction of Ki67 expression in CD4+ T cells” value (CD4+ T cells) is reported as “substantially reduced potency; also recorded: higher potency than Benchmark-4” and the “induction of Ki67 expression in CD8+ T cells” value (CD8+ T cells [6]) is reported as “equally effective”.
For “P-0546: Tocilizumab IL-2 L19H/S125I/Q126E monovalent fusion, SEQ ID NOs 253 + 254 + 256”, the “change of the activated CD4+ T cells” value [2] was “slight increase”, the “Treg/Tconv ratio (Ki67 stimulation, cell counts)” value (Treg cells [3]) was “most beneficial Treg/Tconv ratio” and the “expression of CD25 and Foxp3 on Treg cells” value (Treg cells [3]) was “highest expression of CD25”. For the same compound, the “potency in inducing Treg cell proliferation and expansion in vivo (in words)” value (Treg cells [3]) was “highest potency”.
With “P-0512: IL-2 L19H/S125I/Q126K Fc fusion, SEQ ID NO: 214” the “Ki67 stimulation on CD8 T cells and NK cells in vivo (in words)” value [7] was “mild Ki67 stimulation”, the “expansion of CD4+ Tconv cells, CD8 T cells or NK cells in vivo” value [7] was “No significant expansion” and the “Treg Selectivity” value ([1]; Isoleucine-125 constructs) was “Yes”. For the same compound, the “potency in stimulating NK cell proliferation (in words)” value (NK cells [8]) was “comparable activity profile to Benchmark-1”, the “pSTAT5 activity profile in Treg, Teff and naive CD4 T cell subsets (in words)” value [9] was “comparable activity profile to Benchmark-1” and the “Treg/Tconv ratio (Ki67 stimulation and cell counts)” value (Treg cells [10]; all measured time points) was “most beneficial Treg/Tconv ratio”. The “stimulation of Treg cell proliferation and expansion in vivo (in words)” value (Treg cells [10]; days 3, 5, 7) was “stronger in vivo efficacy”, the “potency in stimulating CD8+ T cell proliferation (in words)” value (CD8+ T cells [11]) was “comparable activity profile to Benchmark-1” and the “% Treg over total CD4 T cells or over total lymphocytes” value (Treg cells [12]; after three consecutive Q3D treatments) was “sustained at significantly high levels”. For the same compound, the “Treg cell counts, fold changes relative to PBS and Treg/Tconv ratio” value (Treg cells [12]; repeated dosing Q3D) was “superior capabilities to sustain Treg pool and maintain Treg selectivity”.
In the case of “Benchmark-4: benchmark Fc-IL-2 fusion with IL-2Rα-disrupting triple mutations F42A/Y45A/L72G, SEQ ID NO: 250 [reference compound]”, the “induction of Ki67 expression in NK cells” value (NK cells [5]) is reported as “equally effective” and the “induction of Ki67 expression in CD8+ T cells” value (CD8+ T cells [6]) is reported as “equally effective”.
